Measurements from ChEMBL document CHEMBL1136640, “The newly synthesized linoleic acid derivative FR236924 induces a long-lasting facilitation of hippocampal neurotransmission by targeting nicotinic acetylcholine receptors” (2003).

Columns and labels:
Torpedo [1] = experiment: Effect on Torpedo nicotinic ACh receptor responses at 0 min determined by measuring percentage of original amplitude
Torpedo [2] = experiment: Effect on Torpedo nicotinic ACh receptor responses at 10 min determined by measuring percentage of original amplitude
Rattus norvegicus = experiment: Intraperitoneal dose required to facilitate the hippocampal neurotransmission in rat; assay type: functional, Hippocampus

Structure (SMILES) | Original amplitude (Torpedo [1]) [%] | Original amplitude (Torpedo [2]) [%] | Dose (Rattus norvegicus) [mg/kg]
CCCCC/C=C\C/C=C\C/C=C\C/C=C\CCCC(=O)O | 78 | 139 | –
CCCCCC1CC1CC1CC1CCCCCCCC(=O)O (configuration not stated) [FR-236924] | 122 | 156 | 2
CCCCC/C=C\C/C=C\CCCCCCCC(=O)O | 72 | 175 | –
CCC1CC1CC1CC1CC1CC1CCCCCCCC(=O)O (configuration not stated) | 87 | 69 | –

Further lines, with some results ahead:

Original amplitude (Torpedo [1]) [%] | Original amplitude (Torpedo [2]) [%] | Structure (SMILES) | Dose (Rattus norvegicus) [mg/kg]
77 | 272 | CC/C=C\C/C=C\C/C=C\CCCCCCCC(=O)O | –
117 | 124 | CCCCCCCCC1CC1CCCCCCCC(=O)O (configuration not stated) | –
88 | 78 | CCCCCC1CC1CC1CC1CC1CC1CC1CC1CCCC(=O)O (configuration not stated) | –
108 | 139 | CCCCCCCC/C=C\CCCCCCCC(=O)O | –
